In US11607417B2, “Uses of celastrol in preventing and/or treating cholestatic liver disease and liver fibrosis” (KUNMING INSTITUTE OF BOTANY, THE CHINESE ACADEMY OF SCIENCES, priority 2017, dated 2023):

Columns and labels:
[1] = test system: ANIT-induced cholestatic liver injury under SIRT1 inhibition; assay: Effect of SIRT1 inhibition (EX527) on celastrol activity in ANIT model (Example 3); type: in vivo, C57BL/6 mice
Experimental: A total of 24 male C57BL/6 mice were divided into four groups: blank group (n=6); model group (n=6); treatment group (n=6); and EX527 group (n=6).
Celastrol was dissolved in a solvent to obtain a celastrol solution at a concentration of 2 mg/mL, wherein the solvent consisted of 1% DMSO, 2% Tween 80, and 97% water (v:v:v). For intragastrical administration, the dosage of celastrol was 10 mg/kg·d. ANIT was dissolved in corn oil to obtain a corn oil solution of ANIT at a concentration of 15 mg/mL, and the dosage of ANIT for intragastrical administration was 75 mg/kg. EX527 was dissolved in corn oil to obtain a corn oil solution of EX527 at a concentration of 2 mg/mL, and the dosage of EX527 for intraperitoneal injection was 10 mg/kg·d.
(§1) The EX527 group was simultaneously administrated with the celastrol solution and the EX527 corn oil solution for 5 consecutive days. The treatment group was administrated with the celastrol solution and an equal dosage of corn oil for 5 consecutive days. At the same time, the blank group and the model group were administrated with equal dosages of solvent (1% DMSO, 2% Tween 80 and 97% water (v:v:v)) and corn oil, and the solvent was administrated for 5 consecutive days.
On the 3rd day of administration, ANIT model was established. 4 Hours after administration, the mice in the model group, the treatment group and the EX527 group were respectively intraperitoneally injected with the ANIT corn oil solution at a dosage of 75 mg/kg for single administration to induce cholestatic liver injury, and the blank group was fed with an equal dosage of corn oil. After the model was established on the 3rd day of administration, the treatment group was continuously administrated with celastrol, the EX527 group was continuously administrated with celastrol and EX527, and the blank group and the model group were continuously administrated with the same dosage of solvent. 48 Hours after administration with ANIT, the mice were sacrificed by CO2 anesthesia, and mouse liver samples and plasma samples were taken. The eyeballs of the mice were taken for blood collection. The plasma samples were placed on ice for 1-2 hours, centrifuged at 4000 g for 5 minutes at 4° C., and the supernatants of the plasma samples were taken to determine plasma biochemical indicators, the levels of ALT, AST and ALP.
At the same time, plasma samples were prepared: 10 μL of plasma sample was taken, mixed well with 190 μL of 67% acetonitrile (containing 5 μM internal standard chlorpropamide), centrifuged at 18000 g for 20 minutes at 4° C., and the supernatant was taken for sample injection. The liquid chromatography conditions were as follows: the injection volume was 5 μL; the temperature of column was 45° C.; the flow rate of mobile phase was 0.3 mL/min; the gradient elution was that acetonitrile concentration changed from 2% to 98% during 16 minutes of operation, wherein the mobile phase (water/acetonitrile solution) contained 0.01% formic acid. The elution procedure was as follows: during 0-12th minute, the acetonitrile concentration changed from 2% to 98% at a constant rate; during 12-14th minute, the acetonitrile concentration was maintained at 98%; during 14-14.1th minute, the acetonitrile concentration changed from 98% to 2%; during 14.1-16th minute, the acetonitrile concentration was maintained at 2%. Mass spectrometry conditions were as follows: the temperature of dry gas was 350° C., the pressure of nebulizer was 35 psi, and the voltage of capillary was 3.5 kV.
Part of the collected mouse liver tissue was fixed overnight in formalin and tissue sections were stained with hematoxylin and eosin (H&E).

[2] = test system: TAA-induced cholestatic liver injury under SIRT1 inhibition; assay: Effect of SIRT1 inhibition (EX527) on celastrol activity in TAA model (Example 4); type: in vivo, C57BL/6 mice; details: TAA model
Experimental: A total of 24 male C57BL/6 mice were divided into four groups: blank group (n=6);
model group (n=6); treatment group (n=6); EX527 group (n=6).
Celastrol was dissolved in a solvent to obtain a solution of celastrol at a concentration of 2 mg/mL, wherein the solvent consisted of 1% DMSO, 2% Tween, and 97% water (v:v:v). For intragastrical administration, the dosage of celastrol was 10 mg/kg·d. TAA was dissolved in 0.9% NaCl solution to prepare a NaCl solution of TAA at a concentration of 60 mg/mL, and the dosage of TAA for intraperitoneal administration was 300 mg/kg. EX527 was dissolved in corn oil to prepare a corn oil solution of EX527 at a concentration of 2 mg/mL, and the dosage of EX527 for intraperitoneal administration was 10 mg/kg. d.
as §1, with “simultaneously administered” for “simultaneously administrated”, “for 4” for “for 5”
On the 4th day, the establishment of TAA model was performed. 1 Hour after administration, the mice in the model group, the treatment group and the EX527 group were intraperitoneally injected with TAA at a dosage of 300 mg/kg to induce cholestatic liver injury. 24 Hours after administration with TAA, the mice were sacrificed by CO2 anesthesia, and plasma samples and liver samples were collected. The eyeballs of the mice were taken for blood collection. The plasma samples were placed on ice for 1-2 hours, centrifuged at 4000 g for 5 minutes at 4° C., and the supernatants of plasma samples were taken to determine the plasma biochemical indicators, the levels of ALT, AST, and ALP.
At the same time, plasma samples were prepared: 10 μL of plasma sample was mixed with 190 μL of 67% acetonitrile (containing 5 μM internal standard chlorpropamide), centrifuged at 18000 g for 20 minutes at 4° C., and the supernatant was taken for sample injection. The liquid chromatography conditions were as follows: the volume of injection was 5 μL; the temperature of column was 45° C.; the flow rate of mobile phase was 0.3 mL/min; the gradient elution was that acetonitrile concentration changed from 2% to 98% during 16 minutes of operation, wherein the mobile phase (water/acetonitrile solution) contained 0.01% formic acid. The elution procedure was as follows: during 0-12th minute, the acetonitrile concentration changed from 2% to 98% at a constant rate; during 12-14th minute, the acetonitrile concentration was maintained at 98%; during 14-14.1th minute, the acetonitrile concentration changed from 98% to 2%; during 14.1-16th minute, the acetonitrile concentration was maintained at 2%. Mass spectrometry conditions were as follows: the temperature of dry gas was 350° C., the pressure of nebulizer was 35 psi, and the voltage of capillary was 3.5 kV.
Part of the collected mouse liver tissue was fixed overnight in formalin, and tissue sections were stained with hematoxylin and eosin (H&E).

[3] = EX527 group: celastrol 10 mg/kg·d + EX527 10 mg/kg·d i.p., P<0.05, FIG. 3E
[4] = EX527 group: celastrol 10 mg/kg·d + EX527 10 mg/kg·d i.p., P<0.001, FIG. 4E

NC(=O)C1CCCc2c1[nH]c1ccc(Cl)cc21 (centres unmarked) [EX527, reference compound]
Levels of bile acids in plasma vs treatment group ([1]; CA, TβMCA/TαMCA and THDCA/TUDCA, EX527 group: celastrol + EX527 10 mg/kg·d i.p., P<0.05, FIG. 3F): significantly higher | H&E staining of mouse liver tissue ([1]; EX527 group: celastrol 10 mg/kg·d + EX527 10 mg/kg·d i.p., FIG. 3D): a severe inflammatory infiltration and a periportal hemorrhage also occurred | ALT level in plasma vs treatment group [1, 3]: significantly higher | AST level in plasma vs treatment group [1, 3]: significantly higher | Levels of bile acids in plasma vs treatment group ([2]; DCA, TβMCA/TαMCA, TCA and TDCA, EX527 group: celastrol + EX527 10 mg/kg·d i.p., P<0.05, FIG. 4F): significantly higher | H&E staining of mouse liver tissue ([2]; EX527 group: celastrol 10 mg/kg·d + EX527 10 mg/kg·d i.p., FIG. 4D): a severe necrosis of liver cells also occurred | ALT level in plasma vs treatment group [2, 4]: significantly higher | AST level in plasma vs treatment group [2, 4]: significantly higher
